From patent US20200397816A1, “METHODS TO TREAT INFLAMMATORY AND SMOOTH MUSCLE CELL PROLIFERATION DISORDERS” (THE TRUSTEES OF INDIANA UNIVERSITY, priority 2019, published 2020)

Columns and labels:
[1] = tested on: pSTAT3 (Y705); experiment: EMAP II induced pSTAT3 western blot in RAW 264.7 macrophages; assay type: cell-based, mouse; details: RAW 264.7 macrophages, EMAP II 24 hours
Procedure: (§1) After appropriate treatments, protein lysates were prepared by using RIPA buffer supplemented with phosphatase and protease inhibitors (Thermo Fischer Scientific). Alpha-tubulin was used as a loading control. For nuclear and cytoplasmic fractionation, NE-PER kit from Thermo Fischer Scientific was used. Western blots were performed according to standard methods and quantified using densitometry using Image Studio Lite software from LI-COR Biosciences.
as §1, with “(Thermo Fisher” for “(Thermo Fischer”

[2] = tested on: STAT3 transcription reporter plasmid; experiment: STAT3 transcription reporter luciferase assay in HEK293-T cells; assay type: cell-based, human; details: inhibitor pretreatment 1 hour, luciferase after 24 hours
Procedure: (§2) Transfection and luciferase assay. Human Embryonic Kidney (HEK) 293-T cells cultured in DMEM media containing 10% serum were reverse co-transfected with pGL4.47fluc2P/SIE/Hygrol and pGL4.74 [hRluc/TK] using Attractene Transfection Reagent (301005, Qiagen) as per manufacturer's protocol. Pretreated with inhibitors for 1 hour as required. After the treatment cells were incubated for 24 hours and luciferase activity was measured using Dual-Glo Luciferase Assay (E2920, Promega) per manufacturer's guidelines.
as §2, with “HEK” for “Transfection and luciferase assay. Human Embryonic Kidney (HEK)”

[3] = tested on: EGR1; experiment: EGR1 protein western blot (whole cell lysates, nuclear fractions) in RAW 264.7 macrophages; assay type: cell-based, mouse; details: macrophages (RAW 264.7); MEK inhibitor 10 μM; EMAP II 2 hours
Procedure: (§3) RAW 264.7 (ATCC) mouse macrophages and Human Embryonic Kidney (HEK) 293T cells were cultured in DMEM media with 10% fetal bovine serum […] and glutamine HEPES buffer and beta-mercaptoethanol were added to the growth medium used for RAW 264.7 macrophages. Primary human pulmonary artery smooth muscle cells (hPASMC) purchased from Lonza (Walkersville, Md.) were cultured in complete growth medium containing smooth muscle growth media-2 (SmGM-2) with 10% FBS and growth factors provided as a kit by the supplier (Lonza, (Walkersville, Md.). THP-1 human monocyte cells were cultured in RPMI 1640 with 10% FBS and glutamine Cells were cultured in a humidified atmosphere with 5% CO2 at 370 C. For all studies passages 5-14 were used for RAW 264.7 and passages 5-10 were used for hPASMCs. For treatment studies, subconfluent cells plated in multi-well plates were serum starved and if required, pretreated for with inhibitors before stimulating with 2 μg/mL recombinant EMAP II.
as §1
RAW 264.7 (ATCC) mouse macrophages and HEK-293T (ATCC) cells were cultured in DMEM media with 10% (v/v) fetal bovine serum (FBS) and 2 mM glutamine HEPES buffer and beta-mercaptoethanol were added to the growth medium used for RAW 264.7 macrophages. Primary human pulmonary artery smooth muscle cells (hPASMC) purchased from Lonza (Walkersville, Md.) were cultured in complete growth medium containing smooth muscle growth media-2 (SmGM-2) with 10% FBS and growth factors provided as a kit by the supplier (Lonza, (Walkersville, Md.). THP-1 human monocyte cells were cultured in RPMI 1640 with 10% FBS and glutamine Cells were cultured in a humidified atmosphere with 5% CO2 at 37° C. For all studies passages 5-14 were used for RAW 264.7 and passages 5-10 were used for hPASMCs. For treatment studies, subconfluent cells plated in multi-well plates were serum starved and if required, pretreated with inhibitors before stimulation with 2 μg/mL recombinant EMAP II.
as §1, with “Fisher” for “Fischer”, “For nuclear and cytoplasmic fractionation, NE-PER kit from Thermo Fischer Scientific was used.” left out

[4] = tested on: EGR1; experiment: EGR1 protein western blot and immunofluorescence in hPASMC; assay type: cell-based, human; details: SMCs (hPASMC); MEK inhibitor 10 μM; EMAP II 1 hour
Procedure: as §3, §1
Primary hPASMCs cells or human THP-1 macrophages were seeded in Nunc Lab-Tek™ II 4-well imaging plates (Thermo Fisher Scientific) chamber well slides and cultured in growth medium. After the serum starvation cells were stimulated with EMAP II. Treated cells were rinsed with PBS and fixed with 4% paraformaldehyde at room temperature for 15 min and permeabilized with 0.1% Triton X-100 at room temperature for 10 min After washing with PBS three times, the cells were incubated with EGR1, 1amin, or pSphK1 antibody at 40C overnight. The cells were then rinsed with PBS three times and subsequently incubated with respective secondary antibody conjugated with Alex Fluor 647 and 488 or Phalloidin 488 at room temperature for 1 h. The cells were rinsed with PBS three times and coverslips were mounted with SlowFade Gold Antifade Mountant with DAPI (Thermo Fischer Scientific) and the cells were examined under Olympus microscope with 40× for EGR1 expression and with 60× for pSphK1 water immersion.
Knockdown of endogenous EGR1 was carried out by transfecting with 25 nM final concentration of ON-TARGETplus siRNAs specific for EGR1 or non-targeting control purchased from GE Dharmacon (Lafayette,CO) using Viromer Blue (Lipocalyx) per manufacturer's instructions. Cells were stimulated with EMAP II 48 h post-transfection.
RAW 264.7 (ATCC) mouse macrophages and HEK-293T (ATCC) cells were cultured in DMEM media with 10% (v/v) fetal bovine serum (FBS) and 2 mM glutamine HEPES buffer and beta-mercaptoethanol were added to the growth medium used for RAW 264.7 macrophages. […]

[5] = tested on: EGR1; experiment: EGR1 transcripts qRT-PCR in hPASMC; assay type: cell-based, human; details: SMCs; 10 μM pretreatment; EMAP II 45 minutes; normalized against Gapdh
Procedure: (§4) RAW 264.7 (ATCC) mouse macrophages and Human Embryonic Kidney (HEK) 293T cells were cultured in DMEM media with 10% fetal bovine serum […] and glutamine HEPES buffer and beta-mercaptoethanol were added to the growth medium used for RAW 264.7 macrophages. […]
(§5) Total RNA was extracted with TriZol using standard RNA extraction protocol and reverse transcribed with SuperScript III Reverse Transcriptase (Thermo Fischer Scientific). SphK1, Tnf, Il6, EGR1, Gapdh, Hprt1 transcripts were quantified using PrimePCR SYBR Green assays from BioRad. […]
(§6) Total RNA was extracted with TriZol using standard RNA extraction protocol and reverse transcribed with SuperScript III Reverse Transcriptase (Thermo Fisher Scientific). SPHK1, Tnf, Il6, EGR1, Gapdh, Hprt1 transcripts were quantified using PrimePCR SYBR Green assays from BioRad.

[6] = tested on: EGR1; experiment: EGR1 transcripts qRT-PCR in RAW 264.7 macrophages; assay type: cell-based, mouse; details: 10 μM pretreatment, EMAP II 45 minutes, normalized against Hprt1
Procedure: as §4, §5, §6

## CC(C)(C)C(=O)/C(=N/c1ccc(Cl)cc1)NNc1ccc(Cl)cc1 [iS1PR3, TY 52156]
[1]; inhibitor pretreatment 1 μM
  EMAP II induced pSTAT3 (pSTAT3/STAT3): significantly inhibited

## N#CC[C@H](C1CCCC1)n1cc(-c2ncnc3[nH]ccc23)cn1 [iJAK1/2, Ruxolitinib]
[1]; inhibitor pretreatment 1 μM
  EMAP II induced pSTAT3 (pSTAT3/STAT3): significantly inhibited

## Cc1cc(CS(=O)(=O)c2ccccc2)cc(OCc2ccc(CN3CCC[C@@H]3CO)cc2)c1 [iSphK1, PF543]
[2]
  EMAP II induced luminescence of STAT3 transcription reporter plasmid: significantly inhibited
[1]; inhibitor pretreatment 100 nM
  EMAP II induced pSTAT3 (pSTAT3/STAT3): significantly inhibited
[1]; inhibitor pretreatment 100 nM, listed as PF543
  EMAP II induced pSTAT3 (pSTAT3/STAT3): inhibited
[1]; inhibitor pretreatment 100 nM, listed as iSPHK1
  EMAP II induced pSTAT3 (pSTAT3/STAT3): significantly inhibited

## O=C(NOCC1CC1)c1cc(Br)c(F)c(F)c1Nc1ccc(I)cc1Cl [iERK, PD184161, reference compound]
[3]
  EMAP II induced EGR1 protein expression: blocked
[4]
  EMAP II induced EGR1 protein expression: blocked
[1]; inhibitor pretreatment 10 μM
  EMAP II induced pSTAT3 (pSTAT3/STAT3): significantly inhibited

## CC(=O)Nc1cccc(-n2c(=O)n(C3CC3)c(=O)c3c(Nc4ccc(I)cc4F)n(C)c(=O)c(C)c32)c1 [iERK1, Trametinib, reference compound]
[3]
  EMAP II induced EGR1 protein expression: blocked
[4]
  EMAP II induced EGR1 protein expression: blocked
[5]
  EMAP II induced EGR1 transcription: inhibited
[6]
  EMAP II induced EGR1 transcription: inhibited

## CCCCCCc1cccc(NC(=O)[C@H](N)CCP(=O)(O)O)c1 [iS1PR1, W146]
[1]; inhibitor pretreatment 1 μM
  EMAP II induced pSTAT3 (pSTAT3/STAT3): significantly inhibited

## Cc1nn(C)c2nc(NNC(=O)Nc3cc(Cl)nc(Cl)c3)cc(C(C)C)c12 [iS1PR2, JTE 013]
[1]; inhibitor pretreatment 1 μM
  EMAP II induced pSTAT3 (pSTAT3/STAT3): significantly inhibited
